The results in this text go back to patent US9518018B2, “3-alkoxy, thioalkyl and amino-4-amino-6-(substituted)picolinates and their use as herbicides” (Dow AgroSciences LLC, priority 2011, dated 2016).

Common to all, as to assay type: in vivo
Assay [1] has as its system CYPRO = Cyperus rotundus L. (purple nutsedge). As to the kind of experiment: In-water applied herbicidal activity in transplanted paddy rice. Particulars: 21 DAA. The method, then: (§1) Rice seeds were planted in Sun Gro MetroMix 306 planting mixture, which typically has a pH of 6.0 to 6.8 and an organic matter content of about 30 percent, in plastic plug trays. Seedlings at the second or third leaf stage of growth were transplanted into 650 mL of mud contained in 960 mL non-perforated plastic pots with a surface area of 86.59 cm^2 four days prior to herbicide application. The paddy was created by filling the 2.5 to 3 cm headspace of the pots with water. When required to ensure good germination and healthy plants, a fungicide treatment and/or other chemical or physical treatment was applied. The plants were grown for 4-14 d in a greenhouse with an approximate 14-h photoperiod which was maintained at about 29° C. during the day and 26° C. during the night. Nutrients were added as Osmocote (17:6:10, Nitrogen:Phosphorus:Potassium (N:P:K)+minor nutrients) at 2 grams (g) per cup. Water was added on a regular basis to maintain the paddy flood, and supplemental lighting was provided with overhead metal halide 1000-Watt lamps as necessary. The plants were employed for testing when they reached the second or third true leaf stage. Treatments consisted of compounds 45, 34, and 66. For technical grade compounds, a weighed amount, determined by the highest rate to be tested, was placed in an individual 120 mL glass vial and was dissolved in 20 mL of acetone to obtain concentrated stock solutions. […] The concentrated stock solutions obtained were diluted with 20 mL of an aqueous mixture containing 2.5% Agri-dex crop oil concentrate (v/v). Applications were made by injecting an appropriate amount of the stock solution into the aqueous layer of the paddy. Control plants were treated in the same manner with the solvent blank. All treated plant material received the same concentration of acetone and crop oil concentrate. The treated plants and control plants were placed in a greenhouse as described above and water was added as needed to maintain a paddy flood. After approximately 3 weeks, the condition of the test plants, compared with that of the untreated plants, was determined visually and scored on a scale of 0 to 100 percent where 0 corresponds to no injury and 100 corresponds to complete kill. By applying the well-accepted probit analysis as described by J. Berkson in Journal of the […], 48, 565 (1953) and by D. Finney in “Probit Analysis” Cambridge University Press (1952) or by plotting the mean data and fitting a logarithmic curve to the portion of the data where there was a dose response using Microsoft Excel®, the above data can be used to calculate GR50 and GR90 values, which are defined as growth reduction factors that correspond to the effective dose of herbicide required to kill or control 50 percent or 90 percent, respectively, of a target plant.

The test system of assay [2] is LEFCH = Leptochloa chinensis (L.) NEES (Chinese sprangletop). The description is as above. Particulars: 21 DAA. Here is the method:
as §1

In assay [3] the test system is LIDDU = Lindernia dubia (L.) PENNELL (low falsepimpernel). The assay is described as above. The following applies: 21 DAA. Here is the method:
as §1

In assay [4] the test system is AMARE: pigweed, redroot (Amaranthus retroflexus). As to the kind of experiment: Pre-emergent Test I herbicidal activity. The following applies: Table 5, 140 g ai/ha. An excerpt:
(§2) Seeds of the desired test plant species were planted in a soil matrix prepared by mixing a loam soil (43 percent silt, 19 percent clay, and 38 percent sand, with a pH of about 8.1 and an organic matter content of about 1.5 percent) and sand in a 70 to 30 ratio. The soil matrix was contained in plastic pots with a surface area of 113 square centimeters. When required to ensure good germination and healthy plants, a fungicide treatment and/or other chemical or physical treatment was applied.
(§3) A weighed amount, determined by the highest rate to be tested, of each test compound was placed in a 25 mL glass vial and was dissolved in 6 mL of a 97:3 v/v (volume/volume) mixture of acetone and DMSO to obtain concentrated stock solutions. […] The stock solutions obtained were diluted with 18 mL of a 0.1% v/v aqueous solution of Tween® 20 surfactant to obtain spray solutions containing the highest application rate. Additional application rates were obtained by serial dilution of 12 mL of the high rate solution into a solution containing 3 mL of 97:3 v/v mixture of acetone and DMSO and 9 mL of the 0.1% v/v aqueous solution of Tween® 20 surfactant to obtain ½×, ¼×, ⅛× and 1/16× rates of the high rate. Compound requirements are based upon a 12 mL application volume at a rate of 187 L/ha. Formulated compounds were applied to the plant material with an overhead Mandel track sprayer equipped with 8002E nozzles calibrated to deliver 187 L/ha over an application area of 0.503 square meters at a spray height of 18 inches ([…]) above the soil surface. Control plants were sprayed in the same manner with the solvent blank.
(§4) The treated pots and control pots were placed in a greenhouse maintained with an approximate 15 hour photoperiod and temperatures of about 23-29° C. during the day and 22-28° C. during the night. Nutrients and water were added on a regular basis and supplemental lighting was provided with overhead metal halide 1000-Watt lamps as necessary. The water was added by top-irrigation. After 20-22 days, the condition of the test plants that germinated and grew as compared with that of the untreated plants that emerged and grew was determined visually and scored on a scale of 0 to 100 percent where 0 corresponds to no injury and 100 corresponds to complete kill or no emergence.

The test system of assay [5] is CHEAL: lambsquarters (Chenopodium album). The assay can be described thus: Pre-emergent Test I herbicidal activity. Particulars: Table 5, 140 g ai/ha.
From the text: as §2, §3, §4

Assay [6] deals with EPHHL: poinsettia, wild (Euphorbia heterophylla). As to the kind of experiment: Pre-emergent Test I herbicidal activity. The following applies: Table 5, 140 g ai/ha.
From the text: as §2, §3, §4

Assay [7] relates to SETFA: foxtail, giant (Setaria faberi). As to the kind of experiment: Pre-emergent Test I herbicidal activity. Particulars: Table 5, 140 g ai/ha.
From the text: as §2, §3, §4

Assay [8] deals with ZEAMX: corn (Zea mays). As to the kind of experiment: Pre-emergent Test I herbicidal activity. The following applies: Table 5, 140 g ai/ha.
From the text: as §2, §3, §4

The mark [9] stands for this setting: dose to kill or control 50 percent.
[10] abbreviates: dose to kill or control 90 percent.

Molecules are shown by their SMILES.

With `COc1c(C(=O)OCc2ccccc2)nc(-c2ccc(Cl)c(OC)c2F)c(F)c1N` [Compound 66, benzyl 4-amino-6-(4-chloro-2-fluoro-3-methoxyphenyl)-5-fluoro-3-methoxypicolinate], the “Mean Visual Injury (%)-21 Days After Application CYPRO” value was 65% in assay [1] (4.38 g ae/ha); 100% in assay [1] (8.75 g ae/ha); 100% in assay [1] (17.5 g ae/ha); 100% in assay [1] (35 g ae/ha); 100% in assay [1] (70 g ae/ha). For the same molecule, in assay [1] (setting [9]), the “GR50 CYPRO” value is <4.38 g ae/ha. For the same molecule, the “GR90 CYPRO” value in assay [1] (setting [10]) is 7.2 g ae/ha. Also, the “Mean Visual Injury (%)-21 Days After Application LEFCH” value in assay [2] (2.19 g ae/ha) was determined as 0%; in assay [2] (4.38 g ae/ha), 0%; in assay [2] (8.75 g ae/ha), 0%; in assay [2] (17.5 g ae/ha), 0%; in assay [2] (35 g ae/ha), 16%; in assay [2] (70 g ae/ha) it was 100%. Moreover, the “GR50 LEFCH” value in assay [2] (setting [9]) is listed as 40.9 g ae/ha. Further, in assay [2] (setting [10]), the “GR90 LEFCH” value amounted to 71.2 g ae/ha. Further, the “Mean Visual Injury (%)-21 Days After Application LIDDU” value in assay [3] (2.19 g ae/ha) is given as 0%; in assay [3] (4.38 g ae/ha) it was 100%; in assay [3] (8.75 g ae/ha) it was 100%; in assay [3] (17.5 g ae/ha), 100%; in assay [3] (35 g ae/ha), 100%; in assay [3] (70 g ae/ha), 100%. The “GR50 LIDDU” value in assay [3] (setting [9]) is listed as <4.38 g ae/ha. Besides, in assay [3] (setting [10]), the “GR90 LIDDU” value was <4.38 g ae/ha.
With `COc1c(N)cc(-c2ccc(Cl)cc2)nc1C(=O)O` [Compound 46], in assay [4], the “Visual Growth Reduction (%)-21 Days after Application AMARE” value was found to be 95%. Also, in assay [5], the “Visual Growth Reduction (%)-21 Days after Application CHEAL” value is reported as 95%. Further, the “Visual Growth Reduction (%)-21 Days after Application EPHHL” value in assay [6] came to 100%. Moreover, the “Visual Growth Reduction (%)-21 Days after Application SETFA” value in assay [7] came to 100%. Also, in assay [8], the “Visual Growth Reduction (%)-21 Days after Application ZEAMX” value is recorded as 0%.
